Laboratory results: the NIST ThermoML archive (doi:10.1021/je020205i)

Experiment: xn = mol fraction of the nth substance listed
Settings: Fluid (supercritical or subcritical phases), Taylor dispersion method, x1 = 0

`CCCCCC=CCC=CCC=CCC=CCCCC(=O)O` [5,8,11,14-eicosatetraenoic acid] + O=C=O showed a binary diffusion coefficient (308.15 K, 9500 kPa) of 7.5e-09 m2/s, a binary diffusion coefficient (308.15 K, 10000 kPa) of 7.17e-09 m2/s and a binary diffusion coefficient (308.15 K, 10520 kPa) of 7.03e-09 m2/s. For the same compound, the binary diffusion coefficient (308.15 K, 10870 kPa) was 6.75e-09 m2/s, the binary diffusion coefficient (308.15 K, 11000 kPa) was 6.58e-09 m2/s and the binary diffusion coefficient (308.15 K, 11500 kPa) was 6.57e-09 m2/s. For the same compound, the binary diffusion coefficient (308.15 K, 12010 kPa) was 6.7e-09 m2/s, the binary diffusion coefficient (308.15 K, 12020 kPa) was 6.48e-09 m2/s and the binary diffusion coefficient (308.15 K, 12490 kPa) was 6.27e-09 m2/s. For the same compound, the binary diffusion coefficient (308.15 K, 12990 kPa) was 6.18e-09 m2/s, the binary diffusion coefficient (308.15 K, 14000 kPa) was 6.17e-09 m2/s and the binary diffusion coefficient (308.15 K, 15990 kPa) was 5.9e-09 m2/s. For the same compound, the binary diffusion coefficient (308.15 K, 17990 kPa) was 5.63e-09 m2/s, the binary diffusion coefficient (308.15 K, 20010 kPa) was 5.48e-09 m2/s and the binary diffusion coefficient (308.15 K, 22000 kPa) was 5.38e-09 m2/s. The binary diffusion coefficient (308.15 K, 24000 kPa) was 5.25e-09 m2/s, the binary diffusion coefficient (308.15 K, 26000 kPa) was 5.11e-09 m2/s and the binary diffusion coefficient (308.15 K, 28010 kPa) was 5.02e-09 m2/s. The binary diffusion coefficient (308.15 K, 30240 kPa) was 4.99e-09 m2/s, the binary diffusion coefficient (308.15 K, 30490 kPa) was 4.85e-09 m2/s and the binary diffusion coefficient (313.21 K, 9500 kPa) was 9.04e-09 m2/s. For the same compound, the binary diffusion coefficient (313.21 K, 10000 kPa) was 8.41e-09 m2/s, the binary diffusion coefficient (313.21 K, 11010 kPa) was 7.76e-09 m2/s and the binary diffusion coefficient (313.21 K, 12010 kPa) was 7.1e-09 m2/s. The binary diffusion coefficient (313.21 K, 14000 kPa) was 6.66e-09 m2/s, the binary diffusion coefficient (313.21 K, 16000 kPa) was 6.29e-09 m2/s and the binary diffusion coefficient (313.21 K, 18000 kPa) was 6.06e-09 m2/s. The binary diffusion coefficient (313.21 K, 20000 kPa) was 5.78e-09 m2/s, the binary diffusion coefficient (313.21 K, 22010 kPa) was 5.64e-09 m2/s and the binary diffusion coefficient (313.21 K, 24010 kPa) was 5.53e-09 m2/s. The binary diffusion coefficient (313.21 K, 26010 kPa) was 5.36e-09 m2/s, the binary diffusion coefficient (313.21 K, 28020 kPa) was 5.24e-09 m2/s and the binary diffusion coefficient (313.21 K, 30040 kPa) was 5.1e-09 m2/s. For the same compound, the binary diffusion coefficient (313.21 K, 30130 kPa) was 5.1e-09 m2/s, the binary diffusion coefficient (323.15 K, 12010 kPa) was 9.02e-09 m2/s and the binary diffusion coefficient (323.15 K, 12500 kPa) was 9.07e-09 m2/s. For the same compound, the binary diffusion coefficient (323.15 K, 13020 kPa) was 8.66e-09 m2/s, the binary diffusion coefficient (323.15 K, 13480 kPa) was 8.28e-09 m2/s and the binary diffusion coefficient (323.15 K, 14010 kPa) was 8.15e-09 m2/s. It also gave a binary diffusion coefficient (323.15 K, 15990 kPa) of 7.44e-09 m2/s, a binary diffusion coefficient (323.15 K, 18000 kPa) of 7.03e-09 m2/s and a binary diffusion coefficient (323.15 K, 20020 kPa) of 6.78e-09 m2/s. For the same compound, the binary diffusion coefficient (323.15 K, 21990 kPa) was 6.42e-09 m2/s, the binary diffusion coefficient (323.15 K, 24000 kPa) was 6.21e-09 m2/s and the binary diffusion coefficient (323.15 K, 26000 kPa) was 6.02e-09 m2/s. The binary diffusion coefficient (323.15 K, 28020 kPa) was 5.88e-09 m2/s, the binary diffusion coefficient (323.15 K, 30050 kPa) was 5.64e-09 m2/s and the binary diffusion coefficient (323.15 K, 30060 kPa) was 5.82e-09 m2/s. It also gave a binary diffusion coefficient (333.15 K, 13890 kPa) of 1.05e-08 m2/s, a binary diffusion coefficient (333.15 K, 15030 kPa) of 9.16e-09 m2/s and a binary diffusion coefficient (333.15 K, 15500 kPa) of 9.04e-09 m2/s. For the same compound, the binary diffusion coefficient (333.15 K, 16980 kPa) was 8.47e-09 m2/s, the binary diffusion coefficient (333.15 K, 17500 kPa) was 8.32e-09 m2/s and the binary diffusion coefficient (333.15 K, 19010 kPa) was 7.91e-09 m2/s. For the same compound, the binary diffusion coefficient (333.15 K, 19990 kPa) was 7.67e-09 m2/s, the binary diffusion coefficient (333.15 K, 22010 kPa) was 7.26e-09 m2/s and the binary diffusion coefficient (333.15 K, 24000 kPa) was 7.01e-09 m2/s. The binary diffusion coefficient (333.15 K, 26010 kPa) was 6.81e-09 m2/s, the binary diffusion coefficient (333.15 K, 26060 kPa) was 6.78e-09 m2/s and the binary diffusion coefficient (333.15 K, 28030 kPa) was 6.68e-09 m2/s. The binary diffusion coefficient (333.15 K, 30160 kPa) was 6.49e-09 m2/s, the binary diffusion coefficient (343.15 K, 16200 kPa) was 1.01e-08 m2/s and the binary diffusion coefficient (343.15 K, 16990 kPa) was 9.57e-09 m2/s. For the same compound, the binary diffusion coefficient (343.15 K, 17490 kPa) was 9.45e-09 m2/s, the binary diffusion coefficient (343.15 K, 18010 kPa) was 9.14e-09 m2/s and the binary diffusion coefficient (343.15 K, 18990 kPa) was 8.93e-09 m2/s. The binary diffusion coefficient (343.15 K, 19990 kPa) was 8.61e-09 m2/s, the binary diffusion coefficient (343.15 K, 21000 kPa) was 8.46e-09 m2/s and the binary diffusion coefficient (343.15 K, 22010 kPa) was 8.32e-09 m2/s. The binary diffusion coefficient (343.15 K, 22980 kPa) was 7.87e-09 m2/s, the binary diffusion coefficient (343.15 K, 23990 kPa) was 7.79e-09 m2/s and the binary diffusion coefficient (343.15 K, 26000 kPa) was 7.58e-09 m2/s. For the same compound, the binary diffusion coefficient (343.15 K, 28000 kPa) was 7.12e-09 m2/s, the binary diffusion coefficient (343.15 K, 28050 kPa) was 7.3e-09 m2/s and the binary diffusion coefficient (343.15 K, 30260 kPa) was 7.13e-09 m2/s.

Work on `CCCCC/C=C\C/C=C\CCCCCCCC(=O)O` [(Z,Z)-9,12-octadecadienoic acid] + O=C=O yielded a binary diffusion coefficient (308.15 K, 8500 kPa) of 8.7e-09 m2/s, a binary diffusion coefficient (308.15 K, 8970 kPa) of 8.31e-09 m2/s and a binary diffusion coefficient (308.15 K, 10000 kPa) of 7.53e-09 m2/s. The binary diffusion coefficient (308.15 K, 11020 kPa) was 7.33e-09 m2/s, the binary diffusion coefficient (308.15 K, 12000 kPa) was 6.89e-09 m2/s and the binary diffusion coefficient (308.15 K, 14000 kPa) was 6.45e-09 m2/s. It also gave a binary diffusion coefficient (308.15 K, 16010 kPa) of 6.13e-09 m2/s, a binary diffusion coefficient (308.15 K, 17470 kPa) of 6.02e-09 m2/s and a binary diffusion coefficient (308.15 K, 18020 kPa) of 5.9e-09 m2/s. For the same compound, the binary diffusion coefficient (308.15 K, 20000 kPa) was 5.85e-09 m2/s, the binary diffusion coefficient (308.15 K, 21000 kPa) was 5.71e-09 m2/s and the binary diffusion coefficient (308.15 K, 22030 kPa) was 5.69e-09 m2/s. For the same compound, the binary diffusion coefficient (308.15 K, 25000 kPa) was 5.26e-09 m2/s, the binary diffusion coefficient (308.15 K, 26000 kPa) was 5.2e-09 m2/s and the binary diffusion coefficient (308.15 K, 28050 kPa) was 5.05e-09 m2/s. It also gave a binary diffusion coefficient (308.15 K, 30300 kPa) of 4.96e-09 m2/s, a binary diffusion coefficient (313.21 K, 9490 kPa) of 9.47e-09 m2/s and a binary diffusion coefficient (313.21 K, 10040 kPa) of 8.74e-09 m2/s. The binary diffusion coefficient (313.21 K, 10990 kPa) was 8.03e-09 m2/s, the binary diffusion coefficient (313.21 K, 12000 kPa) was 7.7e-09 m2/s and the binary diffusion coefficient (313.21 K, 14020 kPa) was 7.17e-09 m2/s. For the same compound, the binary diffusion coefficient (313.21 K, 15980 kPa) was 6.75e-09 m2/s, the binary diffusion coefficient (313.21 K, 17980 kPa) was 6.47e-09 m2/s and the binary diffusion coefficient (313.21 K, 20000 kPa) was 6.13e-09 m2/s. For the same compound, the binary diffusion coefficient (313.21 K, 21990 kPa) was 5.97e-09 m2/s, the binary diffusion coefficient (313.21 K, 24000 kPa) was 5.77e-09 m2/s and the binary diffusion coefficient (313.21 K, 26010 kPa) was 5.63e-09 m2/s. The binary diffusion coefficient (313.21 K, 27990 kPa) was 5.46e-09 m2/s, the binary diffusion coefficient (313.21 K, 30040 kPa) was 5.49e-09 m2/s and the binary diffusion coefficient (313.21 K, 30110 kPa) was 5.39e-09 m2/s. The binary diffusion coefficient (323.15 K, 12020 kPa) was 8.9e-09 m2/s, the binary diffusion coefficient (323.15 K, 12510 kPa) was 9.15e-09 m2/s and the binary diffusion coefficient (323.15 K, 13000 kPa) was 8.86e-09 m2/s. The binary diffusion coefficient (323.15 K, 14000 kPa) was 8.58e-09 m2/s, the binary diffusion coefficient (323.15 K, 16000 kPa) was 7.76e-09 m2/s and the binary diffusion coefficient (323.15 K, 18000 kPa) was 7.39e-09 m2/s. For the same compound, the binary diffusion coefficient (323.15 K, 20010 kPa) was 7.06e-09 m2/s, the binary diffusion coefficient (323.15 K, 22000 kPa) was 6.83e-09 m2/s and the binary diffusion coefficient (323.15 K, 24000 kPa) was 6.57e-09 m2/s. For the same compound, the binary diffusion coefficient (323.15 K, 26000 kPa) was 6.37e-09 m2/s, the binary diffusion coefficient (323.15 K, 28020 kPa) was 6.12e-09 m2/s and the binary diffusion coefficient (323.15 K, 30290 kPa) was 5.9e-09 m2/s. For the same compound, the binary diffusion coefficient (333.15 K, 13890 kPa) was 9.59e-09 m2/s, the binary diffusion coefficient (333.15 K, 14480 kPa) was 9.99e-09 m2/s and the binary diffusion coefficient (333.15 K, 15000 kPa) was 9.67e-09 m2/s. For the same compound, the binary diffusion coefficient (333.15 K, 15980 kPa) was 9.33e-09 m2/s, the binary diffusion coefficient (333.15 K, 18000 kPa) was 8.66e-09 m2/s and the binary diffusion coefficient (333.15 K, 20000 kPa) was 8.28e-09 m2/s. It also gave a binary diffusion coefficient (333.15 K, 20050 kPa) of 8.17e-09 m2/s, a binary diffusion coefficient (333.15 K, 22000 kPa) of 7.82e-09 m2/s and a binary diffusion coefficient (333.15 K, 24020 kPa) of 7.58e-09 m2/s. The binary diffusion coefficient (333.15 K, 26060 kPa) was 7.21e-09 m2/s, the binary diffusion coefficient (333.15 K, 27020 kPa) was 7.14e-09 m2/s and the binary diffusion coefficient (333.15 K, 28020 kPa) was 7.03e-09 m2/s. It also gave a binary diffusion coefficient (333.15 K, 29040 kPa) of 6.99e-09 m2/s, a binary diffusion coefficient (333.15 K, 30070 kPa) of 6.82e-09 m2/s and a binary diffusion coefficient (343.15 K, 16200 kPa) of 1.02e-08 m2/s. It also gave a binary diffusion coefficient (343.15 K, 16210 kPa) of 1.04e-08 m2/s, a binary diffusion coefficient (343.15 K, 16990 kPa) of 1.02e-08 m2/s and a binary diffusion coefficient (343.15 K, 17990 kPa) of 9.85e-09 m2/s. For the same compound, the binary diffusion coefficient (343.15 K, 18000 kPa) was 9.84e-09 m2/s, the binary diffusion coefficient (343.15 K, 18990 kPa) was 9.43e-09 m2/s and the binary diffusion coefficient (343.15 K, 20000 kPa) was 9.01e-09 m2/s. For the same compound, the binary diffusion coefficient (343.15 K, 20040 kPa) was 9.18e-09 m2/s, the binary diffusion coefficient (343.15 K, 22000 kPa) was 8.71e-09 m2/s and the binary diffusion coefficient (343.15 K, 24000 kPa) was 8.37e-09 m2/s. It also gave a binary diffusion coefficient (343.15 K, 26010 kPa) of 8.11e-09 m2/s, a binary diffusion coefficient (343.15 K, 26990 kPa) of 7.88e-09 m2/s and a binary diffusion coefficient (343.15 K, 28010 kPa) of 7.77e-09 m2/s. For the same compound, the binary diffusion coefficient (343.15 K, 29050 kPa) was 7.81e-09 m2/s and the binary diffusion coefficient (343.15 K, 30030 kPa) was 7.64e-09 m2/s.
